pIC50: −log10 of the molar value.

Sequence of full-length human PIKFYVE (Q9Y2I7 whole entry S696N/L932S/Q995L/T998S/S1033A/Q1183K, the tested form may be a part): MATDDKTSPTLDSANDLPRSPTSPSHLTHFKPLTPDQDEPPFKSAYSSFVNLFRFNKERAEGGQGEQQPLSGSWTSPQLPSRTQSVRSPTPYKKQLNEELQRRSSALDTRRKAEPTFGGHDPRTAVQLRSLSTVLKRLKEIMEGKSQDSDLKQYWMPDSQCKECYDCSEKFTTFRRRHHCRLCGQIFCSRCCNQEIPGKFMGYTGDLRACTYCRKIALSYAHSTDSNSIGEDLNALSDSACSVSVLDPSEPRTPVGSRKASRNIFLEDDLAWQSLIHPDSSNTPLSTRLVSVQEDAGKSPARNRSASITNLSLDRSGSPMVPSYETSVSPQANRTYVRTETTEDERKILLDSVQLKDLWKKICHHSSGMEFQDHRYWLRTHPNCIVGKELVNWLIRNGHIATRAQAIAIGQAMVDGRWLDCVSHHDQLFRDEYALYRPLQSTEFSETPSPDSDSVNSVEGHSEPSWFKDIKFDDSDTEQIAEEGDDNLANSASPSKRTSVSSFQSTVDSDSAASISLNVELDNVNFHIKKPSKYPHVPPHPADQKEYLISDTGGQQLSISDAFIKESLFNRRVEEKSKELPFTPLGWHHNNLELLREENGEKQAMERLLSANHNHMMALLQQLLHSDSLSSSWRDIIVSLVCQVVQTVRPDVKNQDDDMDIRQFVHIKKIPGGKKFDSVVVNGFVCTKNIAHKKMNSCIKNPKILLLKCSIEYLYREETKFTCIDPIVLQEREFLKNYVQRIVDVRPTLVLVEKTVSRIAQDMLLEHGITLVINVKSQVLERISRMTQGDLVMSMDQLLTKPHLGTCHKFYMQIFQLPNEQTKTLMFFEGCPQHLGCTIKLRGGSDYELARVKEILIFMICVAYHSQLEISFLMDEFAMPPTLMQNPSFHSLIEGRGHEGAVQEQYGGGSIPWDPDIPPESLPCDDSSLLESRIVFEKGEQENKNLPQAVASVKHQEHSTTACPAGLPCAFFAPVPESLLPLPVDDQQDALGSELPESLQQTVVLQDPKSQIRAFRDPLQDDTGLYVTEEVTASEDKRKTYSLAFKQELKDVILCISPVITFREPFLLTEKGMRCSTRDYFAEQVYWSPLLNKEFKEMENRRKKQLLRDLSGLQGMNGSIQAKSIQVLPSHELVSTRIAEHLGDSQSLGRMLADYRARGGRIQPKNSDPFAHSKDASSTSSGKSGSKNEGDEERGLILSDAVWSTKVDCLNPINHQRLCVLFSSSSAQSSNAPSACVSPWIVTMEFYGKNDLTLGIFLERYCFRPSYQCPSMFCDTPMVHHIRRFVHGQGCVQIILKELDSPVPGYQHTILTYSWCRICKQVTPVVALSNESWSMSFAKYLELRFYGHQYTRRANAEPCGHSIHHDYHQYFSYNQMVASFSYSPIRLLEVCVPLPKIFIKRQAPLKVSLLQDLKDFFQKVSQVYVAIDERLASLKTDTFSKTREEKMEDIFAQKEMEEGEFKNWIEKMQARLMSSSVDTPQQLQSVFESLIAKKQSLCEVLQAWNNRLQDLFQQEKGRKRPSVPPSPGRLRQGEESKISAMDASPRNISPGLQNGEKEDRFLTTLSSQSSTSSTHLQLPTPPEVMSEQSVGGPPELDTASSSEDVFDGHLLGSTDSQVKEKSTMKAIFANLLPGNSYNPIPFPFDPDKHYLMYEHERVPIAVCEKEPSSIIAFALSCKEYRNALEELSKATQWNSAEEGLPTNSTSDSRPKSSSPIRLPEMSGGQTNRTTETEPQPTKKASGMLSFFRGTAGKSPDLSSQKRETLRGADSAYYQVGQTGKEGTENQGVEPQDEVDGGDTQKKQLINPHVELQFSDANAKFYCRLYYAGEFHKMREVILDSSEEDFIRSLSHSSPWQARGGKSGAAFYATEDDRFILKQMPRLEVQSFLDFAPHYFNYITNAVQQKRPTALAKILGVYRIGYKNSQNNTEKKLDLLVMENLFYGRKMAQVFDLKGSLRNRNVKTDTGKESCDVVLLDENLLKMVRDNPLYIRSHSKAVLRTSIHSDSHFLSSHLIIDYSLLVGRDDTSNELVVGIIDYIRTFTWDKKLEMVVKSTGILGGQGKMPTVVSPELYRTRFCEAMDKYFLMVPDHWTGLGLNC

One experiment addresses full-length human PIKFYVE (Homo sapiens (Human), UniProt Q9Y2I7, L932S/Q1183K/Q995L/S1033A/S696N/T998S). Put plainly: PIKfyve biochemical assay (ADP-Glo Kinase assay, Carna Biosciences). The settings on record: class symbols. The method, boiled down:
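N-terminal GST-fused full-length PIKFYVE from baculovirus, incubated with compound, substrate and ATP in 50 mM MOPS, 1 mM DTT, pH7.2 for 1 hour at room temperature. ADP formed detected by ADP-Glo luminescence; IC50 from four-parameter logistic fit of % inhibition.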
In the case of `c1ccc(-c2nc(-c3cc(N4CCOCC4)n4nc(-c5ccncc5)cc4n3)ns2)cc1` [Compound 128, 4-(5-(5-phenyl-1,2,4-thiadiazol-3-yl)-2-(pyridin-4-yl)pyrazolo[1,5-a]pyrimidin-7-yl)morpholine], the pIC50 (in general, the negative decadic logarithm of the IC50, by convention in mol/L) is 7.00 to 8.00.

Take `c1ccc(-c2nnc(-c3cc(N4CCOCC4)n4nc(-c5ccncc5)cc4n3)o2)cc1` [Compound 130, 4-(5-(5-phenyl-1,3,4-oxadiazol-2-yl)-2-(pyridin-4-yl)pyrazolo[1,5-a]pyrimidin-7-yl)morpholine]: the pIC50 is 5.00 to 6.00.

Turning to `c1ccc(-c2cc(N3CCOCC3)n3nc(-c4ccncc4)cc3n2)nc1` [Compound 132], the pIC50 is 6.00 to 7.00.

The compound `CCOC(=O)Cc1cc(N2CCOCC2)n2nc(-c3ccncc3)cc2n1` [Compound 133, ethyl 2-(7-morpholino-2-(pyridin-4-yl)pyrazolo[1,5-a]pyrimidin-5-yl)acetate] showed a pIC50 of 5.00 to 6.00.

Consider `O=C1COC(c2ccccc2)CN1c1cc(N2CCOCC2)n2nc(-c3ccncc3)cc2n1` (stereo not shown) [Compound 135, 4-(7-morpholino-2-(pyridin-4-yl)pyrazolo[1,5-a]pyrimidin-5-yl)-6-phenylmorpholin-3-one], for which the pIC50 is 5.00 to 6.00.

`CN1CC(=O)N(c2cc(N3CCOCC3)n3nc(-c4ccncc4)cc3n2)CC1c1ccccc1` (stereo not shown) [Compound 136, 4-methyl-1-(7-morpholino-2-(pyridin-4-yl)pyrazolo[1,5-a]pyrimidin-5-yl)-5-phenylpiperazin-2-one] showed a negative-log IC50 (pIC50) of 5.00 to 6.00.

With `Fc1cccc(Oc2ncccc2-c2cc(N3CCOCC3)n3nc(-c4ccncc4)cc3n2)c1` [Compound 137, 4-(5-(2-(3-fluorophenoxy)pyridin-3-yl)-2-(pyridin-4-yl)pyrazolo[1,5-a]pyrimidin-7-yl)morpholine], the pIC50 was 6.00 to 7.00.

For the compound `Fc1ccc(Oc2ncccc2-c2cc(N3CCOCC3)n3nc(-c4ccncc4)cc3n2)cc1` [Compound 138, 4-(5-(2-(4-fluorophenoxy)pyridin-3-yl)-2-(pyridin-4-yl)pyrazolo[1,5-a]pyrimidin-7-yl)morpholine], the pIC50 was 6.00 to 7.00.

`Fc1cccc(-c2nccc(-c3cc(N4CCOCC4)n4nc(-c5ccncc5)cc4n3)n2)c1` [Compound 139, 4-(5-(2-(3-fluorophenyl)pyrimidin-4-yl)-2-(pyridin-4-yl)pyrazolo[1,5-a]pyrimidin-7-yl)morpholine] had a negative-log IC50 (pIC50) of 6.00 to 7.00.

Turning to `c1ccc(Cc2nccc(-c3cc(N4CCOCC4)n4nc(-c5ccncc5)cc4n3)n2)cc1` [Compound 140, 4-(5-(2-benzylpyrimidin-4-yl)-2-(pyridin-4-yl)pyrazolo[1,5-a]pyrimidin-7-yl)morpholine], the pIC50 is 6.00 to 7.00.

`C=Cc1cc2nc(-n3ccc(-c4ccccc4)n3)cc(N3CCOCC3)n2n1` [Compound 143, 4-(5-(3-phenyl-1H-pyrazol-1-yl)-2-vinylpyrazolo[1,5-a]pyrimidin-7-yl)morpholine] gave a pIC50 of 6.00 to 7.00.

In the case of `OCC(O)c1cc2nc(-n3ccc(-c4ccccc4)n3)cc(N3CCOCC3)n2n1` (stereo not shown) [Compound 144, 1-(7-morpholino-5-(3-phenyl-1H-pyrazol-1-yl)pyrazolo[1,5-a]pyrimidin-2-yl)ethane-1,2-diol], the negative logarithm of the IC50 (pIC50) is 7.00 to 8.00.

`c1ccc(-n2nccc2-c2cc(N3CCOCC3)n3nc(-c4ccncc4)cc3n2)cc1` [Compound 146, 4-(5-(1-phenyl-1H-pyrazol-5-yl)-2-(pyridin-4-yl)pyrazolo[1,5-a]pyrimidin-7-yl)morpholine] gave a pIC50 of 6.00 to 7.00.

Consider `c1ccc(-c2ccn(-c3cc(N4CCOCC4)n4nc(-c5ccncc5)cc4n3)n2)cc1` [Compound 148], for which the pIC50 was 7.00 to 8.00.

The experiment is the same for the next values; noted with them: numeric values.
Consider `c1ccc(Oc2nccc(-c3cc(N4CCOCC4)n4nc(-c5ccncc5)cc4n3)n2)cc1` [Compound 141, 4-(5-(2-phenoxypyrimidin-4-yl)-2-(pyridin-4-yl)pyrazolo[1,5-a]pyrimidin-7-yl)morpholine], for which the pIC50 was 6.00.

The compound `Fc1cccc(-c2ccnn2-c2cc(N3CCOCC3)n3nc(-c4ccncc4)cc3n2)c1` [Compound 147, 4-(5-(5-(3-fluorophenyl)-1H-pyrazol-1-yl)-2-(pyridin-4-yl)pyrazolo[1,5-a]pyrimidin-7-yl)morpholine] showed a negative-log IC50 (pIC50) of 5.80.

Another experiment has as its system U2OS cells. Description: EEA1 assay (endosomal vesicle enlargement as surrogate readout of PIKFyve inhibition). It counts as cell-based. Particulars: Homo sapiens, 3 hours of treatment, class symbols. The method, then:
EEA1 Assay. Genetic or pharmacological disruption of PIKfyve activity results in enlargement of endosomal vesicles. This enlargement was utilized as a surrogate readout of PIKFyve inhibition for routine triage of PIKfyve inhibitors. U2OS cells grown in 96-well assay plates were treated with compound diluted in DMEM media containing 10% fetal bovine serum. After 3 hours of treatment, cells were fixed with paraformaldehyde, permeabilized with 0.2% Triton-X in phosphate buffered saline and stained against EEA1. During the secondary antibody staining, cells were also stained with CellMask DeepRed and Hoechst to detect cytoplasms and nuclei respectively. Endosomal structures were visualized using a high content imager at 40× magnification. Images were analyzed using a linear classifier algorithm integrating EEA1 spot size, intensity and texture trained on images of cells treated with the potent reference compound APY0201. Compound activity was calculated by subtracting the DMSO signal and calculating percentage activity relative to maximal APY0201 activity. IC50s were then calculated from concentration vs. % inhibition data by logistic regression.
Take `Cc1cccc(-c2ccn(-c3cc(N4CCOCC4)n4nccc4n3)n2)c1` [Compound 78, 4-(5-(3-(m-tolyl)-1H-pyrazol-1-yl)pyrazolo[1,5-a]pyrimidin-7-yl)morpholine]: the pIC50 was 5.00 to 6.00.

Turning to `COc1nn(-c2cc(N3CCOCC3)n3nc(C(O)CO)cc3n2)cc1-c1ccccc1` (stereo not shown) [Compound 145, 1-(5-(3-methoxy-4-phenyl-1H-pyrazol-1-yl)-7-morpholinopyrazolo[1,5-a]pyrimidin-2-yl)ethane-1,2-diol], the pIC50 was 5.00 to 6.00.

`Cc1cccc(-c2ccn(-c3cc(N4CCOCC4)n4nc(CCC(=O)N(C)C)cc4n3)n2)c1` [Compound 149, N,N-dimethyl-3-(7-morpholino-5-(3-(m-tolyl)-1H-pyrazol-1-yl)pyrazolo[1,5-a]pyrimidin-2-yl)propanamide] gave a pIC50 of 6.00 to 7.00.

Take `Cc1cccc(-c2ccn(-c3cc(N4CCOCC4)n4nc(C(O)CO)cc4n3)n2)c1` (stereo not shown) [Compound 150, 1-(7-morpholino-5-(3-(m-tolyl)-1H-pyrazol-1-yl)pyrazolo[1,5-a]pyrimidin-2-yl)ethane-1,2-diol]: the pIC50 is 5.00 to 6.00.

Consider `Cc1cccc(-c2ccn(-c3cc(N4CCOCC4)n4nc(C5CCN(C)C(=O)C5)cc4n3)n2)c1` (stereo not shown) [Compound 151, 1-methyl-4-(7-morpholino-5-(3-(m-tolyl)-1H-pyrazol-1-yl)pyrazolo[1,5-a]pyrimidin-2-yl)piperidin-2-one], for which the negative logarithm of the IC50 (pIC50) is 5.00 to 6.00.

In turn, `Cn1ccc(-c2cccc(-c3cc(N4CCOCC4)n4nc(N5CCC(O)CC5)cc4n3)c2)n1` [Compound 152, 1-(5-(3-(1-methyl-1H-pyrazol-3-yl)phenyl)-7-morpholinopyrazolo[1,5-a]pyrimidin-2-yl)piperidin-4-ol] gave a pIC50 of 5.00 to 6.00.

Another experiment concerns PIKFYVE TDP-43 yeast strain. Description: Propidium iodide viability assay, PIKFYVE TDP-43 yeast strain. The format is cell-based. Particulars: Saccharomyces cerevisiae; PIKFYVE TDP-43 yeast strain, values plotted in FIG. 7. How it is done:
Generation of TDP-43 yeast model expressing human PIKfyve. Human PIKFYVE (“entry clone”) was cloned into […] (“destination vector”) according to standard Gateway cloning protocols (Invitrogen, Life Technologies). The resulting pAG416GPD-PIKFYVE plasmids were amplified in E. coli and plasmid identity confirmed by restriction digest and Sanger sequencing. […]+) (FIG. 2). Transformed yeast were plated on solid agar plates with complete synthetic media lacking uracil (CSM-ura) and containing 2% glucose. Individual colonies harboring the control or PIKFYVE TDP-43 plasmids were recovered. A plasmid containing wild-type TDP-43 under the transcriptional control of the GAL1 promoter and containing the […] as a selectable marker was transformed into the […]-PIKFYVE yeast strain (FIG. 1). Transformed yeast were plated on CSM-ura containing 2% glucose and 200 μg/mL G418 after overnight recovery in media lacking antibiotic. Multiple independent isolates were further evaluated for cytotoxicity and TDP-43 expression levels. Viability Assay. A control yeast strain with the wild-type yeast FAB1 gene and TDP-43 (“FAB1 TDP-43”, carries empty pAG416 plasmid), and the “PIKFYVE TDP-43” yeast strain, were assessed for toxicity using a propidium iodide viability assay. Both yeast strains were transferred from solid CSM-ura/2% glucose agar plates into 3 mL of liquid CSM-ura/2% glucose media for 6-8 hours at 30° C. with aeration. Yeast cultures were then diluted to an optical density at 600 nm wavelength (OD600) of 0.005 in 3 mL of CSM-ura/2% raffinose and grown overnight at 30° C. with aeration to an OD600 of 0.3-0.8. Log-phase overnight cultures were diluted to OD600 of 0.005 in CSM-ura containing either 2% raffinose or galactose and 150 μL dispensed into each well of a flat bottom 96-well plates. Compounds formulated in 100% dimethyl sulfoxide (DMSO) were serially diluted in DMSO and 1.5 μL diluted compound transferred to the 96-well plates using a multichannel pipet. Wells containing DMSO alone were also evaluated as controls for compound effects. Tested concentrations ranged from 15 μM to 0.11 μM. Cultures were immediately mixed to ensure compound distribution and covered plates incubated at 30° C. for 24 hours in a stationary, humified incubator. Upon the completion of incubation, cultures were assayed for viability using propidium iodide (PI) to stain for dead/dying cells. A working solution of PI was made where, for each plate, 1 μL of 10 mM PI was added to 10 mL of CSM-ura (raffinose or galactose). […] The overnight 96-well assay plate was then mixed with a multichannel pipet and 50 μL transferred to the PI-containing plate. This plate was then incubated for 30 minutes at 30° C. in the dark. A benchtop flow cytometer (Miltenyi MACSquant) was then used to assess red fluorescence (B2 channel), forward scatter, and side scatter (with following settings: gentle mix, high flow rate, fast measurement, 10,000 events). Intensity histograms were then gated for “PI-positive” or “PI-negative” using the raffinose and galactose cultures treated with DMSO as controls. The DMSO controls for raffinose or galactose-containing cultures were used to determine the window of increased cell death and this difference set to 100. All compounds were similarly gated and then compared to this maximal window to establish the percent reduction in PI-positive cells.
Turning to `Cc1cccc(/C=N/Nc2cc(N3CCOCC3)nc(OCCc3ccc(CN)cc3)n2)c1`, the pIC50 was 5.95.

As to `c1ccc(-c2cccc(-c3cc(N4CCOCC4)n4nc(-c5ccncc5)cc4n3)n2)cc1`, the pIC50 is 6.64.

For `Oc1cc(-c2ccccc2)nn1-c1cc(N2CCOCC2)n2nc(-c3ccncc3)nc2n1`, the pIC50 is 6.16. Compared with the last compound, the pIC50 is 0.48 log units lower.

Turning to `Cc1cccc(/C=N/Nc2nc(N3CCOCC3)c3ncccc3n2)c1`, the pIC50 is 5.09.

In turn, `c1ccc(-c2ccnc(-c3cc(N4CCOCC4)nc(OCc4ccncc4)n3)n2)cc1` had a pIC50 of 5.84.

As to `c1ccc(N2CCc3c(OCc4cccnc4)nc(N4CCOCC4)nc32)cc1`, the pIC50 is 5.57.

For `Fc1cccc(-c2ccnn2-c2nc(N3CCOCC3)c3ncccc3n2)c1`, the pIC50 was 5.24. Compared with the last compound, the pIC50 is 0.33 log units lower.

Consider `Cc1cccc(/C=N/Nc2nc(N3CCOCC3)c3nc(-c4ccncc4)n(C)c3n2)c1` [drawing 343], for which the pIC50 was 5.33. This pIC50 and that of the compound before are within 0.2 log units of each other.

`Oc1cc(C2CCOCC2)nn1-c1cc(N2CCOCC2)n2nc(-c3ccncc3)cc2n1` [drawing 345]: the pIC50 was 5.04.

The record behind these values is patent US20250353852A1, “COMPOUNDS AND COMPOSITIONS THAT INHIBIT PIKFYVE” (Kineta, Inc., priority 2021, published 2025).
